The text below walks through data of US20150065421A1, “BASAL INSULIN THERAPY” (SANOFI, priority 2012, published 2015).

A short description of test [1]: Respective studies with other long-acting insulins. The format is in vivo. The note with it: no data given. From the text:
The results of the ORIGIN study were obtained with the long-lasting insulin glargine.

Test [2] concerns diabetic patients hospitalized with acute MI. To be noted: IV insulin-glucose infusion then chronic insulin vs standard treatment; cited from earlier work.
Test [3] has as its system critical-care post-surgical patients. To be noted: intervention group: insulin infusion to blood glucose 80-110 mg/dL; cited from earlier work.

On to insulin degludec, for which the “results of respective studies compared with the ORIGIN results of insulin glargine” value in test [1] is on record as “comparable results”. Still for that read-out and setting: the same measure for insulin detemir: “comparable results”.

In the case of “insulin: insulin infusion or chronic insulin treatment in cited DIGAMI and Belgian ICU studies”, the “reduction of all-cause mortality” value in test [2] is listed as 28%. Moreover, in test [3], the “overall mortality at twelve-months follow-up” value is 8.0%.
